Six molecules from US20090075916A1, “Use of Macrolide Derivatives for Treating Acne” (priority 2005, published 2009) can be followed below.

Common to all, as to assay: MIC, agar dilution (NCCLS M11-A5), anaerobic
(In general: Agar dilution tests growth on a series of plates holding different concentrations.)

The test system of test [1] is resistant P. acnes (NDDR I and II) isolates. It counts as cell-based, Propionibacterium acnes. To be noted: Cutibacterium acnes.
A further test has as its system All the P. acnes isolate. It counts as cell-based, Propionibacterium acnes.
Test [2] concerns sensitive P. acnes isolates (Propionibacterium acnes 6523, ATCC 6919, clinical isolate, I and II). The format is cell-based. To be noted: Cutibacterium acnes, sensitive P. acnes isolates: 6523, ATCC 6919, clinical isolate, 48 hours anaerobic.

The structures appear in SMILES notation. Values after ≈ are worked out from the molar mass of the structure shown. Bounds are passed on as bounds.

Broadly, the MIC is the least concentration at which growth counts as inhibited. Read a low MIC as greater potency. `CC[C@H]1OC(=O)[C@H](C)C(=O)[C@H](C)[C@@H](O[C@@H]2O[C@H](C)C[C@H](N(C)C)[C@H]2O)[C@](C)(OC)C[C@@H](C)C(=O)[C@H](C)[C@H]2N(CCCCn3cnc(-c4cccnc4)c3)C(=O)O[C@]12C` [Telithromycin] registered an MIC in test [1] of 2 µg/mL (≈ 2.46 µM).

`Cc1ncc([N+](=O)[O-])n1CCO` [metronidazole]: the “susceptibility of P. acnes isolates (in words)” value with All the P. acnes isolate is listed as “resistance”. On to `CC[C@H]1OC(=O)[C@H](C)[C@@H](O[C@H]2C[C@@](C)(OC)[C@@H](O)[C@H](C)O2)[C@H](C)[C@@H](O[C@@H]2O[C@H](C)C[C@H](N(C)C)[C@H]2O)[C@](C)(O)C[C@@H](C)CN(C)[C@H](C)[C@@H](O)[C@]1(C)O` [Azithromycin], for which the figures for the MIC in test [2] and in test [1] were 0.06 to 0.5 µg/mL (≈ 0.0801 to 0.668 µM) and > 16 µg/mL, respectively. In the same order, the values of `CCC[C@@H]1C[C@@H](C(=O)N[C@@H]([C@H]2O[C@H](SC)[C@H](O)[C@@H](O)[C@H]2O)[C@H](C)Cl)N(C)C1` [Clindamycin] are 0.25 µg/mL (≈ 0.588 µM) and 16 µg/mL (≈ 37.6 µM). In the same order, the values of `CC[C@H]1OC(=O)[C@H](C)[C@@H](O[C@H]2C[C@@](C)(OC)[C@@H](O)[C@H](C)O2)[C@H](C)[C@@H](O[C@@H]2O[C@H](C)C[C@H](N(C)C)[C@H]2O)[C@](C)(OC)C[C@@H](C)C(=O)[C@H](C)[C@@H](O)[C@]1(C)O` [Clarithromycin] are 0.06 to 0.5 µg/mL (≈ 0.0802 to 0.668 µM) and > 16 µg/mL. In the same order, the values of `CC[C@H]1OC(=O)[C@H](C)[C@@H](O[C@H]2C[C@@](C)(OC)[C@@H](O)[C@H](C)O2)[C@H](C)[C@@H](O[C@@H]2O[C@H](C)C[C@H](N(C)C)[C@H]2O)[C@](C)(O)C[C@@H](C)C(=O)[C@H](C)[C@@H](O)[C@]1(C)O` [Erythromycin] are 0.06 to 0.5 µg/mL (≈ 0.0818 to 0.681 µM) and > 16 µg/mL.
